Data as given in paper PMC10630888, “Nuclear ERK1/2 signaling potentiation enhances neuroprotection and cognition via Importinα1/KPNA2” (EMBO Molecular Medicine, 2023).
Values joined by “and” are separate entries in the source; they are usually repeats but may differ in a detail not shown here. Identical values can stand only once.

Legend:
[1] = tested on: pELK; test: Striatal pELK immunohistochemistry 1 h after single injection; format: in vivo, mouse; settings: single injection 20 mg/kg i.p., individual mice
Method: (§1) Immunohistochemistry was performed as described in Papale et al ([2016]). Briefly, 1 h after blocking in 5% normal goat serum and 0.1% Triton X‐100 solution, free‐floating sections were incubated overnight at 4°C with one of the following primary antibodies: anti‐phospho‐p44/42 MAP kinase (Thr202/Tyr204) (1:200, Cell Signaling Technology #9101), anti‐phospho–Elk‐1 (Ser383) (1:100, Cell Signaling #9181), anti‐phospho‐Kv4.2 (Thr607)‐R (1:100, Santa Cruz sc22254‐R), anti‐phospho‐MSK‐1 (1:100 Cell Signaling Technology #9595), anti‐phospho‐MEK1/2 (Ser218/222) (1:100, sc‐7995 Santa Cruz Biotechnology), c‐Fos (1:100, sc‐52 Santa Cruz Biotechnology), tyrosine Hydroxylase (monoclonal 1:1,000, Sigma Aldrich, Italy) and anti‐DARPP‐32 (H3) (1:100, Santa Cruz Biotechnology, #sc‐271111) overnight at 4°C. […]
(§2) For in vivo immunohistochemistry experiments, images were acquired from the dorsal striatum using a Leica DM IRB microscope under a 20× objective. The number of p‐ERK, p‐MSK‐1, p‐ELK, p‐MEK‐1, p‐VG K+, c‐Fos, and DARPP‐32 positive cells was counted in 2–3 consecutive sections per mouse, bilaterally and averaged across the sections using the ImageJ software by a blind investigator to the condition. Estimation of nigral cell loss was assessed by quantifying the number of TH‐immunopositive neurons of the SNc in 360 μm‐spaced sections for each animal.

[2] = tested on: ribosomal protein S6 (Ser 235/236) phosphorylation; test: pS6 (Ser235/236) immunofluorescence in acute striatal slices with glutamate; format: cell-based, mouse; settings: peptide 50 μM 1 h, individual slices
Method: (§3) Adult C57Bl/6 mice were decapitated after cervical dislocation and brain slices were freshly prepared as previously described in Orellana et al ([2012]) and Papale et al ([2016]). Briefly, the brains were rapidly removed from the skull, submerged in ice‐cold sucrose‐based dissecting solution, and sliced into 200 μm‐thick slices using a vibratome. […] After a rapid fixation in 4% PFA, slices were rinsed and cryoprotected overnight at 4°C in 30% sucrose solution. On the following day, slices were cut into 18 μm‐thick slices using a cryostat (Leica CM1850), mounted onto SuperFrost Plus slides (Thermo Scientific) and stored at −20°C until processing for immunohistochemistry or immunofluorescence.
(§4) Immunofluorescence was performed as described in Papale et al ([2016]). Briefly, 1 h after blocking in 5% normal goat serum, slices were incubated overnight at 4°C with the following primary antibodies: anti‐phospho (Ser10)‐acetylated (Lys14) histone H3 (1:1,000, Millipore), anti‐phospho‐S6 ribosomal protein (Ser235/236) (1:200, Cell Signaling Technology) anti‐phospho‐S6 ribosomal protein (Ser240/244) (1:200, Cell Signaling), cleaved caspase‐3 (1:200, Cell Signaling Technology), anti‐mutant Huntingtin (1:100, Developmental Studies Hybridoma Bank, University of Iowa, #MW8), and NeuN (1:1,000, Millipore). Corresponding secondary antibodies (Alexa Fluor 546 conjugated anti‐mouse (1:200, Thermo Fisher Scientific), Alexa Fluor 488 conjugated anti‐rabbit (1:500, Thermo Fisher Scientific) and Pacific Blue goat anti‐mouse (1:200, Thermo Fisher Scientific) were incubated at room temperature for 1 h. Sections stained for mutant Huntingtin were incubated with DAPI for 20 min. Sections were subsequently mounted with fluorescent mounting medium (DAKO). Single and double‐labeled images ([…]) were obtained at 40× magnification from the striatum using a laser scanning confocal microscope (Leica SP2) equipped with the corresponding lasers and appropriate filter sets to avoid the crosstalk between the fluorochromes.
(§5) In ex‐vivo and in‐vivo immunofluorescence experiments, the number of p‐S6 or p‐AcH3 immunoreactive neurons among NeuN‐positive neurons was counted in 2–3 consecutive striatal sections per mouse in four fields per section. Caspase 3‐positive cells were quantified among NeuN‐positive neurons in each slide and expressed as percentage (ratio between caspase‐3‐positive cells and total NeuN‐positive neurons) for each field acquired through the slide. The number of cells showing mutant Huntingtin inclusions were expressed as a percentage of mutant Huntingtin‐positive cells among DAPI‐positive cells.

[3] = tested on: ERK phosphorylation (pERK); test: pERK dose-response in acute striatal slices (ex vivo); format: cell-based, mouse; settings: fresh acute striatal slices from adult mice, RB5 0.5–100 μM, 1 h at 32°C; GraphPad Prism; n = 8–12 slices per group; read-out: EC50 of pERK enhancement (ERK activation)
Method: as §3
Immunohistochemistry was performed as described in Papale et al ([2016]). […]
For ex‐vivo immunohistochemistry experiments, images were acquired from the dorsal striatum using a bright‐field microscope (Macro/Micro Imaging System, Leica) under a 40× magnification. Neuronal quantification was performed with ImageJ software by counting the number of phospho‐ERK positive cells in two sections for each sample in three fields per section. […] The EC50 for pERK was calculated using GraphPad Prism software.

[4] = tested on: p-ERK; test: Striatal p-ERK immunohistochemistry 1 h after single injection; format: in vivo, mouse; settings: single injection 20 mg/kg i.p., individual mice
Method: Immunohistochemistry was performed as described in Papale et al ([2016]). Briefly, 1 h after blocking in 5% normal goat serum and 0.1% Triton X‐100 solution, free‐floating sections were incubated overnight at 4°C with one of the following primary antibodies: anti‐phospho‐p44/42 MAP kinase (Thr202/Tyr204) (1:200, Cell Signaling Technology #9101), anti‐phospho–Elk‐1 (Ser383) (1:100, Cell Signaling #9181), anti‐phospho‐Kv4.2 (Thr607)‐R (1:100, Santa Cruz sc22254‐R), anti‐phospho‐MSK‐1 (1:100 Cell Signaling Technology #9595), anti‐phospho‐MEK1/2 (Ser218/222) (1:100, sc‐7995 Santa Cruz Biotechnology), c‐Fos (1:100, sc‐52 Santa Cruz Biotechnology), tyrosine Hydroxylase (monoclonal 1:1,000, Sigma Aldrich, Italy) and anti‐DARPP‐32 (H3) (1:100, Santa Cruz Biotechnology, #sc‐271111) overnight at 4°C. Sections were then incubated with biotinylated goat anti‐rabbit IgG (1:200, Vector Laboratories) or biotinylated goat anti‐mouse (1:200, Vector Laboratories) for 2 h. The classic avidin‐peroxidase complex (ABC, Vector, UK) protocol was applied, using 3,3′‐diaminobenzidine (DAB, Sigma) as a chromogen.
as §2

[5] = tested on: pERK1/2; test: pERK1/2 in striatum of zQ175 females after RB5; format: in vivo, mouse; settings: zQ175 females and WT controls, RB5 for 9 days
Method: as §1
as §2, with “animal. […]” for “animal.”

[6] = tested on: cleaved caspase-3; test: Cleaved caspase-3 in striatum of HdhQ111/+ mice treated with RB5; format: in vivo, mouse; settings: for cleaved caspase-3 in striatum (Fig 5 panel c): individual animals
Method: as §4, §5

Row | Substance | pELK positive cells in striatum [1] | pS6 (Ser235/236) immunoreactive neurons among NeuN-positive neurons ([2]; then glutamate 100 μM 10 min) | pS6 (Ser235/236) immunoreactive neurons among NeuN-positive neurons ([2]; then vehicle 10 min) | EC50 [3] | p-ERK positive cells in striatum ([4]; ERK1+/+ (WT) mice) | p-ERK positive cells in striatum ([4]; ERK1-/- mice) | p-ERK positive cells in striatum ([4]; 1 h) | pERK1/2 levels in striatum [5] | Striatal neuronal degeneration (cleaved caspase-3) ([6]; 10 month-old HdhQ111/+ mice, 20 mg/kg i.p. for 8 days) | cleaved caspase-3 in striatum (Fig 5 panel c) ([6]; HdhQ111/+ mice) | cleaved caspase-3 in striatum (Fig 5 panel c) ([6]; WT mice)
1 | SCR: ineffective Scramble version of RB5 containing a TAT sequence (GRKKRRQRRRPPRVGPGVPEGVGVAVFGVKEPGQTGDVGPVGE) [reference compound] | 323.81 and 423.81 and 452.381 and 228.571 and 433.333 and 633.333 and 371.429 and 404.762 and 166.667 and 219.048 and 309.524 and 280.952 and 295.238 and 195.238 and 133.333 | 26.24 and 21.87 and 18.27 and 25.45 and 28.87 and 26.8562 and 29.1865 and 24.4192 and 22.75 and 21.51 and 19.87 and 20.18 | 12.33 and 13.90 and 11.33 and 13.09 and 9.47 and 11.58 and 11.02 and 10.86 and 14.51 | – | – | – | – | – | – | – | –
2 | GRKKRRQRRRPPQGGGGGEPRRTEGVGPGVPGEVEMVKGQPFDV [RB5, six D-amino acids, acetylated N-terminus] | selectively activated and 980.952 and 828.571 and 933.333 and 1047.62 and 938.095 and 852.381 and 1080.95 and 1147.62 and 700 and 838.095 and 761.905 and 809.524 and 871.429 and 766.667 | blunted and 17.3997 and 19.6901 and 16.4767 and 13.6077 and 18.6740 and 17.1380 and 11.1928 and 12.0526 and 14.5710 and 10.2402 and 9.5439 and 15.5782 and 12.6217 and 14.7339 | 13.7412 and 14.9907 and 12.2371 and 13.4483 and 9.59 and 9.671 and 8.798 and 18.1241 and 17.7385 and 16.8553 and 14.4173 and 14.7976 and 16.1024 and 14.3475 | 3.4 µM | enhanced pERK and pAcH3 in WT | not in ERK1 KO mice | greatly enhanced striatal ERK phosphorylation | enhanced | attenuated striatal neuronal degeneration | 2.0154 and 1.547 and 0.5041 and 1.332 and 1.4192 | 1.055 and 1.796 and 1.192 and 0.7349 and 0.4238
